Patent US7402548B2, “Benzoxazole compounds, process for producing the same and herbicides” (Kyoyu Agri Co., Ltd., priority 2000, dated 2008)

What was measured:
[1] = tested on: monochoria; test: Herbicidal test for paddy field; format: in vivo, Monochoria vaginalis; conditions: 500 g/ha, dropwise addition to paddy water at 1.5 leaf stage of barnyard grass; glass house 25° C., 3 weeks; rank 0-5 vs non-treated district
Experimental: (§1) Wagner pots, each having an area of 1/5000 are, were packed with Ube soil (alluvial soil) and planted with seeds or tubers of young rice plant, barnyard grass, bulrush, Cyperus serotinus Rottb., arrowhead and monochoria. Then, the pots were filled with water to a depth of 3 cm.
(§2) Each wettable powder of the desired Compounds (I) shown in Tables 1 to 21, 24, 25, 28 and 29 prepared in accordance with Example 2 was diluted with water containing a surfactant (0.05%) and subjected to dropwise addition treatment by using pipet so that an effective concentration of the compound (I) in each herbicide became 500 g/ha at 1.5 leaf stage of barnyard grass.
(§3) These plants were controlled in a glass house at an average temperature of 25° C. for 3 weeks, and then herbicidal effects thereof were investigated.
(§4) The herbicidal effects are evaluated according to the following 6 ranks as compared with non-treated district. (0: normal development, 1: Less damaged, 2: Slightly damaged, 3: Moderately damaged, 4: Severely damaged, 5: All killed). Incidentally, “-” in the column means not investigated.

[2] = tested on: Large crabgrass; test: Soil treatment test for upland field; format: in vivo, Digitaria adscendens; parameters: key: 0 = normal development, 5 = all killed; conditions: 500 g/ha, 3 weeks, glass house 25° C.
Summary of the method: (§5)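 Pre-emergence soil spray, 500 g/ha, WP formulation in water + 0.05% surfactant; alluvial soil; glasshouse, avg 25° C, 3 wk. Score 0 (normal) to 5 (all killed) vs untreated.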

[3] = tested on: livid amaranth; test: Soil treatment test for upland field; format: in vivo, Amaranthus lividus; parameters: key: 0 = normal development, 5 = all killed; conditions: 500 g/ha, 3 weeks, glass house 25° C.
Summary of the method: as §5

[4] = tested on: common lambsquarters; test: Foliar spread test for upland field; format: in vivo, Chenopodium album; parameters: key: 0 = normal development, 5 = all killed (6 ranks vs. untreated); conditions: foliar spray, 500 ppm, 3 weeks, glass house 25° C.
Summary of the method: (§6)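 Scores on a 0–5 scale (0 normal development, 5 all killed), relative to untreated controls, were taken 3 weeks post-treatment in a 25 °C glass house. Treatment was a uniform foliar spray at 500 ppm (0.5% surfactant) onto roughly 2-week-old soil-grown plants.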

[5] = tested on: green foxtail; test: Soil treatment test for upland field; format: in vivo, Setaria viridis; parameters: key: 0 = normal development, 5 = all killed; conditions: 500 g/ha, 3 weeks, glass house 25° C.
Summary of the method: as §5

[6] = tested on: barnyard grass; test: Herbicidal test for paddy field; format: in vivo, Eschinochloa crusgalli; conditions: 500 g/ha, dropwise addition to paddy water at 1.5 leaf stage of barnyard grass; glass house 25° C., 3 weeks; rank 0-5 vs non-treated district
Experimental: as §1, §2, §3, §4

[7] = tested on: wheat; test: Soil treatment test for upland field; format: in vivo; parameters: key: 0 = normal development, 5 = all killed; conditions: 500 g/ha, 3 weeks, glass house 25° C.
Summary of the method: as §5

[8] = tested on: corn; test: Soil treatment test for upland field; format: in vivo; parameters: key: 0 = normal development, 5 = all killed; conditions: 500 g/ha, 3 weeks, glass house 25° C.
Summary of the method: as §5

[9] = tested on: soybean; test: Soil treatment test for upland field; format: in vivo; parameters: key: 0 = normal development, 5 = all killed; conditions: 500 g/ha, 3 weeks, glass house 25° C.
Summary of the method: as §5

[10] = tested on: common lambsquarters; test: Soil treatment test for upland field; format: in vivo, Chenopodium album; parameters: key: 0 = normal development, 5 = all killed; conditions: 500 g/ha, 3 weeks, glass house 25° C.
Summary of the method: as §5

[11] = tested on: barnyard grass; test: Soil treatment test for upland field; format: in vivo, Eschinochloa crusgalli; parameters: key: 0 = normal development, 5 = all killed; conditions: 500 g/ha, 3 weeks, glass house 25° C.
Summary of the method: as §5

[12] = tested on: livid amaranth; test: Foliar spread test for upland field; format: in vivo, Amaranthus lividus; parameters: key: 0 = normal development, 5 = all killed (6 ranks vs. untreated); conditions: foliar spray, 500 ppm, 3 weeks, glass house 25° C.
Summary of the method: as §6

[13] = tested on: wheat; test: Foliar spread test for upland field; format: in vivo; parameters: key: 0 = normal development, 5 = all killed (6 ranks vs. untreated); conditions: foliar spray, 500 ppm, 3 weeks, glass house 25° C.
Summary of the method: as §6

[14] = tested on: green foxtail; test: Foliar spread test for upland field; format: in vivo, Setaria viridis; parameters: key: 0 = normal development, 5 = all killed (6 ranks vs. untreated); conditions: foliar spray, 500 ppm, 3 weeks, glass house 25° C.
Summary of the method: as §6

[15] = tested on: annual bluegrass; test: Soil treatment test for upland field; format: in vivo, Poa annua; parameters: key: 0 = normal development, 5 = all killed; conditions: 500 g/ha, 3 weeks, glass house 25° C.
Summary of the method: as §5

[16] = tested on: Large crabgrass; test: Foliar spread test for upland field; format: in vivo, Digitaria adscendens; parameters: key: 0 = normal development, 5 = all killed (6 ranks vs. untreated); conditions: foliar spray, 500 ppm, 3 weeks, glass house 25° C.
Summary of the method: as §6

[17] = tested on: corn; test: Foliar spread test for upland field; format: in vivo; parameters: key: 0 = normal development, 5 = all killed (6 ranks vs. untreated); conditions: foliar spray, 500 ppm, 3 weeks, glass house 25° C.
Summary of the method: as §6

Row | SMILES | Effects Monochoria [1] | Effects Large crabgrass [2] | Effects Livid amaranth [3] | Effects Common lambsquarters [4] | Effects Green foxtail [5] | Effects Barnyardgrass [6] | Effects Wheat [7] | Effects Corn [8] | Effects Soybean [9] | Effects Common lambsquarters [10] | Effects Barnyardgrass [11] | Effects Livid amaranth [12] | Effects Wheat [13] | Effects Green foxtail [14] | Effects Annual bluegrass [15] | Effects Large crabgrass [16] | Effects Corn [17]
1 | CCC(Oc1cc(C(F)(F)F)nn1C)c1nc2cc(C#N)c(F)cc2o1 (centres unmarked) [Compound 1-e-10] | 4 | 5 | 5 | 5 | 5 | 5 | 0 | 1 | 2 | 5 | 4 | 5 | 1 | 5 | 5 | 5 | –
2 | CCC(Oc1cc(C(F)(F)F)nn1C)c1nc2cc(C#N)c(Cl)cc2o1 (centres unmarked) [Compound 1-e-11] | 4 | 5 | 5 | 5 | 5 | 4 | 0 | 0 | – | 5 | 4 | 5 | 1 | – | 5 | – | –
3 | CCC(Sc1cc(C(F)(F)F)nn1C)c1nc2cc(Cl)ccc2o1 (centres unmarked) [Compound 1-e-12] | 5 | 5 | 4 | – | 2 | – | 0 | 0 | 0 | 3 | 3 | – | – | – | 4 | – | –
4 | CCC(Oc1cc(C(F)(F)F)no1)c1nc2cc(C#N)c(F)cc2o1 (centres unmarked) [Compound 1-e-28] | 5 | 5 | 5 | 5 | 5 | 5 | 0 | 0 | 1 | 5 | 4 | 5 | 2 | 4 | 5 | 4 | 2
